# ChEMBL document CHEMBL1201862, “PubChem BioAssay data set” (2004)
# Active and inactive are the calls of the source.
# Assays:
# [1] = target: Peroxisome proliferator-activated receptor gamma/Nuclear receptor coactivator 2 (Homo sapiens, UniProt P37231); format: functional;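 note: agonist potency for raising coactivator recruitment to the receptor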
# [2] = target: Peroxisome proliferator-activated receptor gamma/Nuclear receptor coactivator 1 (Homo sapiens, UniProt P37231); format: functional;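 note: agonist potency as compounds enhance coactivator SRC-1 recruitment to PPARgamma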
# Chain of Peroxisome proliferator-activated receptor gamma/Nuclear receptor coactivator 1 (P37231 whole entry): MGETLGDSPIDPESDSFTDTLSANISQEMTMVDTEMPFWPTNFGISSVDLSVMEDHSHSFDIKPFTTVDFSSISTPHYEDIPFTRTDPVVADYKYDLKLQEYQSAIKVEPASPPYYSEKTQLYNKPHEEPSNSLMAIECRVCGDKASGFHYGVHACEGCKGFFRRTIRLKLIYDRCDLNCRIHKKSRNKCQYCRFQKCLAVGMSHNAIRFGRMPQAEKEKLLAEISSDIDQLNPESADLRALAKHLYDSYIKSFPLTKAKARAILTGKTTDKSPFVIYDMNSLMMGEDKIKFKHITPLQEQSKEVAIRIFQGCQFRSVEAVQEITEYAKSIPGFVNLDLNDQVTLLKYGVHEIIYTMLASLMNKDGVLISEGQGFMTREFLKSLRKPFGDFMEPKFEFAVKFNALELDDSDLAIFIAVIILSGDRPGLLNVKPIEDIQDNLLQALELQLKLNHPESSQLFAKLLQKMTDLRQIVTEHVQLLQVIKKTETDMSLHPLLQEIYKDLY
# Chain of Peroxisome proliferator-activated receptor gamma/Nuclear receptor coactivator 1 (Q15788 whole entry, further chain): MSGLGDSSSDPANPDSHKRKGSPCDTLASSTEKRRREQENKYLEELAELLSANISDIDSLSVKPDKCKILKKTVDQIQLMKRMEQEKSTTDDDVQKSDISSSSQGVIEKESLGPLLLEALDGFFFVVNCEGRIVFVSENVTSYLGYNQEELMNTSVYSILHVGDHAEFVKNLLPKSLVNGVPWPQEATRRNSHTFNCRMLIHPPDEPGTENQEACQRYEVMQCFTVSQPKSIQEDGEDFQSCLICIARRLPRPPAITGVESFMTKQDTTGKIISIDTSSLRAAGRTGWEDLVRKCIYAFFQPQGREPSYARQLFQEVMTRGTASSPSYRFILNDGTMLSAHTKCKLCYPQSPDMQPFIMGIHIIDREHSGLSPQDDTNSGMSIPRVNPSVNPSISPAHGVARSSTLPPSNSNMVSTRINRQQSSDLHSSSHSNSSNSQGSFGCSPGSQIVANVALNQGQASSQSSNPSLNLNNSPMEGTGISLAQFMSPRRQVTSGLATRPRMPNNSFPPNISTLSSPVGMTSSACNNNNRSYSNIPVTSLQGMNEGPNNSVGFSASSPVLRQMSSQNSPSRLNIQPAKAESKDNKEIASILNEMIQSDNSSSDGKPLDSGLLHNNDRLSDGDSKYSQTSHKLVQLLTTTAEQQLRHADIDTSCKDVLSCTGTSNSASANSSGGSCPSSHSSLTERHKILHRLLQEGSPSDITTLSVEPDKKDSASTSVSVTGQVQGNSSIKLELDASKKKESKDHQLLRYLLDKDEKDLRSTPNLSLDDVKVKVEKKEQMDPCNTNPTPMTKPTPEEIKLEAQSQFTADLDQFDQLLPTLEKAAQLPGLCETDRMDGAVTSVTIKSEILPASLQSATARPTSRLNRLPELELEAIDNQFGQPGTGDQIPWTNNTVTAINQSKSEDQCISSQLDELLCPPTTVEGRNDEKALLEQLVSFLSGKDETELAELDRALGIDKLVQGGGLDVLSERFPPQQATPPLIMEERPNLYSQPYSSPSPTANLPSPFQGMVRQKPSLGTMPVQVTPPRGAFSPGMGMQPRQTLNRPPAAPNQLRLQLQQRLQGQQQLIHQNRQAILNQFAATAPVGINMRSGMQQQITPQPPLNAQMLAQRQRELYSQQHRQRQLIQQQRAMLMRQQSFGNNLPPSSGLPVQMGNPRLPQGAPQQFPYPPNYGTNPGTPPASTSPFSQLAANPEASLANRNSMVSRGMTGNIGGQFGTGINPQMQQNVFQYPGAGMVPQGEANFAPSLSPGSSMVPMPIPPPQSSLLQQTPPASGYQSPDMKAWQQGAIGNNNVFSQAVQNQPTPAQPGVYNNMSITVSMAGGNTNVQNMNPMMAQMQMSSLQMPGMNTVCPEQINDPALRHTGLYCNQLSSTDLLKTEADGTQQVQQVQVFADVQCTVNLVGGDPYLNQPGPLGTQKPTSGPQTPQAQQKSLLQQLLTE
# [3] = target: Peroxisome proliferator-activated receptor gamma/Nuclear receptor coactivator 3 (Homo sapiens, UniProt P37231); format: functional;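 note: agonist potency for raising coactivator recruitment to the receptor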
# [4] = target: T1, Methionyl-tRNA synthetase, putative (Trypanosoma brucei brucei, UniProt Q38C91); format: functional, Trypanosoma brucei brucei strain 927/4 GUTat10.1;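 note: Read-out by fluorescence polarization, run as a confirmatory high-throughput counterscreen; potency of MetRS inhibitors measured by reduced AMP formation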
# T1 sequence (Q38C91 whole entry): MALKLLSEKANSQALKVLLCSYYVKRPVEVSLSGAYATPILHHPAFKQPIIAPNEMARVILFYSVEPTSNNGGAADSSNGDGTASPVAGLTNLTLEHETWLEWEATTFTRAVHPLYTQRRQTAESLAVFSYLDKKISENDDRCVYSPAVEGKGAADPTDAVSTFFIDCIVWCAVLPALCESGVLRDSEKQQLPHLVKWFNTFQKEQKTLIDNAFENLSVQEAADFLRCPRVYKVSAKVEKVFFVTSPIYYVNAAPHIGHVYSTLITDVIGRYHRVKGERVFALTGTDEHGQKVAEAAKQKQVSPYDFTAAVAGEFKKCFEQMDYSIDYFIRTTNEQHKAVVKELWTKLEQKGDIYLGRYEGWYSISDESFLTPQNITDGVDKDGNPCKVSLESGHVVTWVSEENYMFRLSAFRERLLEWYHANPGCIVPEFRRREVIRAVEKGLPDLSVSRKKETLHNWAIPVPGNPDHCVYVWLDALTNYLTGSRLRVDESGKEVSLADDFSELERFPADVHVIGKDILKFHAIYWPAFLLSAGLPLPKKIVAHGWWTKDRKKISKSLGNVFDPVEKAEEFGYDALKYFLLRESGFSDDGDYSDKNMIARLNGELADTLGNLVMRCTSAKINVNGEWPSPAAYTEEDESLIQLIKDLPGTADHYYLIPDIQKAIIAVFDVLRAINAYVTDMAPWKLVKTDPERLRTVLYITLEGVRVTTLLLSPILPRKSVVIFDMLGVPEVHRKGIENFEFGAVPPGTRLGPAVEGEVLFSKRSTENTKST
# [5] = target: T2, DNA repair protein RAD52 homolog (Homo sapiens, UniProt P43351); format: functional, biochemical
# T2 sequence (P43351 whole entry): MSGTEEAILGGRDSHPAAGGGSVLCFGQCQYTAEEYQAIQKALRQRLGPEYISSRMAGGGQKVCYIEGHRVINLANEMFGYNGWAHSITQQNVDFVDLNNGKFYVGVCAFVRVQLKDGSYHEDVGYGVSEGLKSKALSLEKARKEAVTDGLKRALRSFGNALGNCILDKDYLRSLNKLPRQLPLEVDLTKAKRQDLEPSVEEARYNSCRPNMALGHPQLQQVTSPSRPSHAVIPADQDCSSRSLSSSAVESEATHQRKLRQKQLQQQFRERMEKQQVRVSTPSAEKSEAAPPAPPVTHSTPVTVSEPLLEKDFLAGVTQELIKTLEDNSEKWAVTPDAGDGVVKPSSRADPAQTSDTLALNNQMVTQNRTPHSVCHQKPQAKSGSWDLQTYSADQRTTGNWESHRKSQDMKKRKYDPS
# [6] = target: T3, DNA repair and recombination protein RAD54-like (Homo sapiens, UniProt Q92698); assay: RAD54 Holliday junction migration blockers – biochemical, fluorescence, cherry-picked samples, dose series, confirmation (AID 651657); format: functional
# T3 sequence (Q92698 whole entry): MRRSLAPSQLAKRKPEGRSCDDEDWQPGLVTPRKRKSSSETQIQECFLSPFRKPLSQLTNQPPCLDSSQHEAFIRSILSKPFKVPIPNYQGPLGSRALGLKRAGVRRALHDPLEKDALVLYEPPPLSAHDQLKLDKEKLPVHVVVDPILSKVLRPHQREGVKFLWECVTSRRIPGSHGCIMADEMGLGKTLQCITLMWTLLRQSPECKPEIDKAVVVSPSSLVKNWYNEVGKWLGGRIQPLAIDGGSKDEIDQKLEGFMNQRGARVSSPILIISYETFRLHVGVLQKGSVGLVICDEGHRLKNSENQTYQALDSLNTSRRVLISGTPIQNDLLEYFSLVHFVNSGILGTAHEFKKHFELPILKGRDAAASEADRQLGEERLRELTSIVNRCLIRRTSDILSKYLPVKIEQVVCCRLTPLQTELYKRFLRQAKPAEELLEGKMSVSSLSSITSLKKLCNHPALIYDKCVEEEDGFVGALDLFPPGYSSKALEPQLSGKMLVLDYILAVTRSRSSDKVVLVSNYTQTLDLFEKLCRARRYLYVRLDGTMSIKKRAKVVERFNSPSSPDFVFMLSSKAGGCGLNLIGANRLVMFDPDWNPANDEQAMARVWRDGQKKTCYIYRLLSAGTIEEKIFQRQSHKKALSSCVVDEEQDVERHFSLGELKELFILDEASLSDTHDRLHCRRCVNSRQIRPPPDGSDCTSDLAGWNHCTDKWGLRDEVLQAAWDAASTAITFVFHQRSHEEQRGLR
# [7] = Counterscreen for inhibitors of Trypanosoma brucei methionyl tRNA synthetase (MetRS): Luminescence-based cell-based high throughput dose response assay to identify compounds that are cytotoxic to Jurkat human T lymphocyte cells.; format: functional
# [8] = intracellular Trypanosoma cruzi inhibitors in host cells – cell-based, plate reader, cherry-pick samples, set 3, dose response (AID 651818); format: functional;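 note: compounds incubated with infected cells for about four days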
# [9] = blockers of bursicon-stimulated LGR2 cAMP reporter – cell-based, HEK293, CRE-luciferase reporter, cherry pick, set 2, dose response (AID 743343); format: functional;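 note: transfected cells were stimulated with diluted bursicon conditioned medium after compound addition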
# [10] = toxicity toward HepG2 liver cells – cell-based, plate reader, cherry-pick, antagonist series, cytotoxicity control, dose response (AID 743416); format: functional
# [11] = blockade of melanocortin 4 receptor signaling – cell-based, plate reader, cherry pick, counter-screen for LGR2 antagonist project, dose response (AID 743444); format: functional;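 note: transfected HEK 293 cells stimulated with alpha-MSH peptide; potency of inhibitors of the alpha-MSH evoked signal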
# [12] = target: Voltage-dependent T-type calcium channel subunit alpha-1H (Homo sapiens, UniProt O95180); format: functional;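 note: channel activity triggered by adding a high calcium stimulation buffer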
# [13] = HIV-1 Vif–A3G interaction blockers – biochemical, TR-FRET, GST-Vif 1-94, biotin-A3G peptide, dose response retest, primary screen (AID 1117319); format: functional;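 note: TR-FRET signal of purified GST-Vif binding a biotinylated A3G peptide; inhibitors lower the FRET signal by blocking Vif and A3G binding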
# Vero [14] = assay: cells; format: functional; conditions: Chlorocebus sabaeus
# Vero [15] = assay: cells; format: functional, cell-based; conditions: Chlorocebus sabaeus
# [16] = target: T4, Ubiquitin-conjugating enzyme E2 N (Homo sapiens, UniProt P61088); format: functional;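 note: Dose-response confirmation in a TR-FRET assay detecting UBC13-driven polyubiquitin chain formation, inhibition measured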
# T4 sequence (P61088 whole entry): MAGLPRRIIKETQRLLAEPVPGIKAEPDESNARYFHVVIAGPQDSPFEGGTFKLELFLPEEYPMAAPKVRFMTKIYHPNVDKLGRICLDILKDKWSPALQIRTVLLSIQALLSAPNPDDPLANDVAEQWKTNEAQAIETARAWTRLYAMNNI
# Cytochrome P450 3A4 = Cytochrome P450 3A4 (Homo sapiens, UniProt P08684);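 note: CYP3A4 tested as one member of a cytochrome P450 panel screen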
# Chain of Cytochrome P450 3A4 (P08684 whole entry): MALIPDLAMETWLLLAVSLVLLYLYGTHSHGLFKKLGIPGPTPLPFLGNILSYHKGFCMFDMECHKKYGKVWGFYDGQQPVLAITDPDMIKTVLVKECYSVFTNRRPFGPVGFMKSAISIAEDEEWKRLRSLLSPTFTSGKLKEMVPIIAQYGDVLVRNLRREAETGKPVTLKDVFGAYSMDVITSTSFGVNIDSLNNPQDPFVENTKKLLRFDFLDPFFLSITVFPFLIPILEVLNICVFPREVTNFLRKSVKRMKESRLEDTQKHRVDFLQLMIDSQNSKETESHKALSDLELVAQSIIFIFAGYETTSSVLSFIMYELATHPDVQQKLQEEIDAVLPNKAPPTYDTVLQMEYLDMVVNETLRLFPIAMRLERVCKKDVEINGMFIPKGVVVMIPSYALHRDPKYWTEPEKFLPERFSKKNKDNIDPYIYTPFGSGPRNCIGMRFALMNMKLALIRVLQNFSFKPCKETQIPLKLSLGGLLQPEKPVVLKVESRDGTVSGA
# Beta-galactosidase = Beta-galactosidase (Escherichia coli, UniProt Q8VNN2); assay: Dose response counterscreen for EBI2 assay utilizing the enzyme, b-galactosidase.; format: functional
# [17] = NIH-3T3 fibroblast cytotoxicity, dose response, cytotoxicity control, cell-based, fluorescence, Alamar Blue, secondary assay (AID 2327); format: functional;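 note: NIH-3T3 mouse fibroblasts cultured with fluconazole at 8 µg/mL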
# [18] = fluconazole-exposed Candida albicans growth modulators – fluorescence, retest, confirmation (AID 2467); format: functional, cell-based
# Estrogen receptor beta [19] = target: T5, Estrogen receptor beta (Homo sapiens, UniProt Q92731); assay: blockers of SRC-3 recruitment to ERβ – biochemical, ELISA, streptavidin-HRP readout, orthogonal assay, confirmation (AID 1060)
# T5 sequence (Q92731 whole entry): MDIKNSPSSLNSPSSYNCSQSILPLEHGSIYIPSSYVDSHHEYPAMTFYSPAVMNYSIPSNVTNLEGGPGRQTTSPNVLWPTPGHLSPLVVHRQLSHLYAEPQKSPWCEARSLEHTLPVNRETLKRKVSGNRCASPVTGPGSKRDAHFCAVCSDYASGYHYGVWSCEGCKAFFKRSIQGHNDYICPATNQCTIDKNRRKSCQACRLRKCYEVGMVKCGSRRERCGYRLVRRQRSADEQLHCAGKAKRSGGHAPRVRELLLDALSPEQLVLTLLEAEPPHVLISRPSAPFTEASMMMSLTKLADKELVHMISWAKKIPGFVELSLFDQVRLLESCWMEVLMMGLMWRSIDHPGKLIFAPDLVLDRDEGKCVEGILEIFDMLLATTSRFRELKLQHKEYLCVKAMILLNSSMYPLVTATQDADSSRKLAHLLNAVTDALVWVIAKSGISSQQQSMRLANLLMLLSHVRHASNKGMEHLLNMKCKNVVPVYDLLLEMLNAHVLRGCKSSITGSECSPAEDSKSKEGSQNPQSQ
# Cytochrome P450 2C9 = Cytochrome P450 2C9 (Homo sapiens, UniProt P11712)
# Estrogen receptor = target: T6, Estrogen receptor (Homo sapiens, UniProt P03372);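 note: potency for inhibiting coactivator peptide recruitment to the receptor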
# T6 sequence (P03372 whole entry): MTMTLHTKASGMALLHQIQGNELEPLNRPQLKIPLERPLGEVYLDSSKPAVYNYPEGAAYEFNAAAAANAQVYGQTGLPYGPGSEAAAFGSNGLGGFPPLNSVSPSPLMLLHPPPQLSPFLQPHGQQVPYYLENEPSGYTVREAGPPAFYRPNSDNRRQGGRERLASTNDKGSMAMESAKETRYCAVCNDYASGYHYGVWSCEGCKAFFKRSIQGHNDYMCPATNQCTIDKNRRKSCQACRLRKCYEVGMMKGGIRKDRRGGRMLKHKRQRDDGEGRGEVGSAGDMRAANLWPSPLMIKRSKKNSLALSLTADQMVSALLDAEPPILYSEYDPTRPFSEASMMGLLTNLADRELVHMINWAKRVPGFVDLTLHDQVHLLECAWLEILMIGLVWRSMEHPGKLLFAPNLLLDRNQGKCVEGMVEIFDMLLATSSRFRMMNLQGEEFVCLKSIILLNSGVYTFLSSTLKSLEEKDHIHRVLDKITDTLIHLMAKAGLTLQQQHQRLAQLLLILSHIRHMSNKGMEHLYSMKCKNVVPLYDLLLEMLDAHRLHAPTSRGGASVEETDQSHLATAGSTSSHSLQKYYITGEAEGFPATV
# Estrogen receptor beta [20] = target: T5, Estrogen receptor beta
# [21] = target: DNA dC->dU-editing enzyme APOBEC-3G (Homo sapiens, UniProt Q9HC16); format: functional;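 note: Dose-response counterscreen measuring inhibition of APOBEC3G DNA deaminase activity, run while confirming APOBEC3A inhibitors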
# [22] = target: DNA dC->dU-editing enzyme APOBEC-3A (Homo sapiens, UniProt P31941); assay: Dose Response confirmation of small molecule APOBEC3A DNA Deaminase Inhibitors via a fluorescence-based single-stranded DNA deaminase assay. [Related pubchem assays (depositor defined):AID493011, AID493024]; format: functional
# [23] = viability of uninfected HEp-2 cells – cell-based, HTS, cytotoxicity control for RSV inhibitor project, dose response (AID 2410); format: functional; conditions: human respiratory syncytial virus
# Chain of Peroxisome proliferator-activated receptor gamma/Nuclear receptor coactivator 2 (P37231 whole entry): as the sequence (P37231 whole entry) above
# Chain of Peroxisome proliferator-activated receptor gamma/Nuclear receptor coactivator 2 (Q15596 whole entry, further chain): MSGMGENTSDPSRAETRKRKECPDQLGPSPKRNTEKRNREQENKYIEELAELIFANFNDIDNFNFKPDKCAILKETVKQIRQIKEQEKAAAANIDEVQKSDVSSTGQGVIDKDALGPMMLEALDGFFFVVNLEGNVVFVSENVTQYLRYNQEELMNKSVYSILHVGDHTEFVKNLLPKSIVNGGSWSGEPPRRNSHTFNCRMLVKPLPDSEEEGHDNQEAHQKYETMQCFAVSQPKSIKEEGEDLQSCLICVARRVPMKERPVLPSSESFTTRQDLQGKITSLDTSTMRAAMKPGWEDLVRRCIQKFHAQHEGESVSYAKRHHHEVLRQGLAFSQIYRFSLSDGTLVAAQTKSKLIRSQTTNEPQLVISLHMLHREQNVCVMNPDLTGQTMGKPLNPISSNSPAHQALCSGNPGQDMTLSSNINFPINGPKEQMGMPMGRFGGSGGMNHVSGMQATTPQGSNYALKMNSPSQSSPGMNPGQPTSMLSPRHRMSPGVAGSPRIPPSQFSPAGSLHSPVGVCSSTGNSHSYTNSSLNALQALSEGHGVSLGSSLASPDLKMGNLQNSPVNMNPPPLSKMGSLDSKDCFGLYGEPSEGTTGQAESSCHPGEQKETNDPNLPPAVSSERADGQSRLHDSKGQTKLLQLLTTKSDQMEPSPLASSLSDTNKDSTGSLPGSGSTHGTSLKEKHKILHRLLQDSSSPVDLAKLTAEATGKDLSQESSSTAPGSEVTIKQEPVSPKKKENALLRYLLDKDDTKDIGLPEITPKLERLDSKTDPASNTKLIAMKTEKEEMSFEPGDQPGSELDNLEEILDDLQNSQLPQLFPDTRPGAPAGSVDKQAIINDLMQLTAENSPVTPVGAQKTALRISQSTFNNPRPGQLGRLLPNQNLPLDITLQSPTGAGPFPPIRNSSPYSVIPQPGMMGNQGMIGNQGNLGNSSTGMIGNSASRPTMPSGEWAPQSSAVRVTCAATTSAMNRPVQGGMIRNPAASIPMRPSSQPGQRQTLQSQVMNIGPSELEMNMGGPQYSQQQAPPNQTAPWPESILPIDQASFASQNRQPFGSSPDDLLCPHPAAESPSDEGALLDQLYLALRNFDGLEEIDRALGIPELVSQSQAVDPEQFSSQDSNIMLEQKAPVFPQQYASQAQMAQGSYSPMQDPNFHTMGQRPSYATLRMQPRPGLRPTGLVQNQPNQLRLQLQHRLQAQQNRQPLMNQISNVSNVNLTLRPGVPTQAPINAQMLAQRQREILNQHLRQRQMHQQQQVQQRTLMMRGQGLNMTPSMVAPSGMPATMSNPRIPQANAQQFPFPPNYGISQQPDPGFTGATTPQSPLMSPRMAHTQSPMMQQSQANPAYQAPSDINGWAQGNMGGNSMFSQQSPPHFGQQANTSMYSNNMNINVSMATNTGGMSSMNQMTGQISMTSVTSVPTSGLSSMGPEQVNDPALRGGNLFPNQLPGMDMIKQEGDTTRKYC
structure (smiles),measurement,setting,value
CCOC(=O)c1sc(NC(=O)CSc2nnnn2-c2ccc(C)c(C)c2)nc1C,EC50,[1],77.4 µM (not active)
same,EC50,[2],> 79.4 µM (not active)
same,EC50,[3],> 79.4 µM (not active)
Fc1ccccc1CSc1nc2ncc(Br)cc2[nH]1,EC50,[1],24.2 µM (not active)
same,EC50,[2],36.8 µM (not active)
same,IC50,[4],82.2 µM (inactive)
same,EC50,[3],49.5 µM (not active)
N=c1c(C(=O)NCCN2CCOCC2)cc2c(=O)n3ccccc3nc2n1CCCN1CCOCC1,AC50,[5],5.36 µM (active)
same,AC50,[6],11.5 µM (active)
CCOC(=O)c1s/c(=N\C(=O)c2cccc(OC)c2)n(C)c1C,EC50,[1],10.5 µM (not active)
same,EC50,[2],11 µM (not active)
same,EC50,[3],15.2 µM (not active)
Cc1csc(CNc2ncnc3ccc(-c4ccccc4Cl)cc23)c1,IC50,[7],83.3 µM (inactive)
same,IC50,[4],97.8 µM (inactive)
Cc1ccc(S(=O)(=O)Nc2ccc3c(c2)CC(=O)N([C@H](C)CO)C[C@@H](C)[C@H](CN(C)Cc2ccccc2)O3)cc1,AC50,[8],1.79 µM (active)
CC1CCCN(c2ncnc3c2cnn3-c2ccccc2)C1 (centres undefined),AC50,[9],2.89 µM (active)
same,AC50,[10],> 52 µM (inactive)
same,AC50,[11],6.32 µM (active)
CCN(CC)S(=O)(=O)c1ccc(C(=O)NCCSc2c[nH]c3ccccc23)cc1,EC50,[12],3.87 µM (active)
CCOC(=O)CN1C(=O)C(Sc2n[nH]c(-c3ccccc3)n2)CCc2ccccc21 (centres undefined),IC50,[13],> 100 µM (active)
CC(=O)/C(C#N)=C1\NC(=O)C(Cc2ccc(C)c(Cl)c2)S1 (centres undefined),CC50,Vero [14],20.6 µM (active)
same,IC50,Vero [15],6.72 µM (active)
CCCCN(CC)CCNC(=O)c1cc2c(=O)n(C)c3ccccc3c2n1C,IC50,[16],> 20 µM (inactive)
same,AC50,[6],32.3 µM (active)
O=C(COc1ccc(Br)cc1)N1CCC(c2ccccc2)C1 (centres undefined),AC50,Cytochrome P450 3A4,28.2 µM (inconclusive)
same,IC50,Beta-galactosidase,> 80 µM (inactive)
CCN(CC)CCN(Cc1cc2cc3c(cc2[nH]c1=O)OCCO3)C(=O)NC1CCCCC1,EC50,[1],> 79.4 µM (not active)
same,EC50,[2],> 79.4 µM (not active)
same,EC50,[3],> 79.4 µM (not active)
Cc1[nH]c(-c2ccc(F)cc2)cc1C(=O)N1CCN(c2ccccc2F)CC1,IC50,Beta-galactosidase,> 80 µM (inactive)
O=C(/C=C/c1ccc(F)cc1)N1CCN(c2ccccn2)CC1,IC50,Beta-galactosidase,> 80 µM (inactive)
same,EC50,[17],> 160 µM (inactive)
same,EC50,[18],2.94 µM (active)
C[C@@H]1CCCCO[C@@H](CN(C)CC2CCCCC2)[C@@H](C)CN([C@H](C)CO)C(=O)c2cc(NC(=O)Nc3cccc4ccccc34)ccc2O1,AC50,[8],0.757 µM (active)
O=C1NC(c2ccc(Br)cc2)Nc2sc3c(c21)CCC3 (centres undefined),IC50,Estrogen receptor beta [19],< 0.023 µM (not active)
same,AC50,Cytochrome P450 3A4,28.2 µM (inconclusive)
same,AC50,Cytochrome P450 2C9,6.31 µM (inconclusive)
same,IC50,Estrogen receptor,19.4 µM (active)
same,IC50,Estrogen receptor beta [20],> 50 µM (not active)
C[C@H](CO)N1C[C@H](C)[C@@H](CN(C)S(=O)(=O)c2ccc(Cl)cc2)Oc2c(NC(=O)Nc3ccccc3)cccc2C1=O,AC50,[8],6.84 µM (active)
Cc1ccc(C(C)C)c(OCCN(C)C)c1,IC50,[13],> 100 µM (active)
Cc1ccc(C)c(SCC(=O)OCC(=O)c2ccco2)c1,IC50,Estrogen receptor beta [19],0.0912 µM (not active)
same,IC50,[21],46.3 µM (active)
same,IC50,[22],18 µM (active)
same,IC50,Estrogen receptor,> 50 µM (not active)
same,IC50,Estrogen receptor beta [20],6.74 µM (active)
O=C1C=C(Nc2ccc(Cl)cc2)CC(c2ccc(Cl)cc2)C1 (centres undefined),AC50,Cytochrome P450 3A4,20 µM (inconclusive)
same,IC50,Beta-galactosidase,> 80 µM (inactive)
CC(C)n1c(CCC(=O)O)ccc1-c1ccccc1,IC50,[13],> 100 µM (active)
CC1=CCC(/C=N\Nc2n[nH]c3c4ccccc4nc-3n2)CC1 (centres undefined),IC50,[13],> 100 µM (active)
O=c1c2ccccc2nc(/C=C/c2ccccc2O)n1-c1ccccc1O,CC50,Vero [14],20.4 µM (active)
same,CC50,[23],8.96 µM (active)
same,IC50,Vero [15],> 25 µM (active)
C[C@@H]1CN([C@@H](C)CO)C(=O)c2cccc(NC(=O)Nc3ccc(C(F)(F)F)cc3)c2O[C@H]1CN(C)S(=O)(=O)c1cccs1,AC50,[8],4.64 µM (active)
